Data as given in patent US4347319A, “Microbiological epoxidation process” (priority 1980, dated 1982).
“Also recorded” adds a separate entry of the source.

Assays:
Type in all cases: biochemical
[1] = system: P(40) particulate fraction of Methylosinus sp. (CRL-15, NRRL B-11,202); assay: Effect of inhibitors on propylene epoxidation and methane hydroxylation; settings: inhibitor 10^-3 M; P(40) fraction
Method: (§1) The oxidation of methane and propylene by particulate [(P)40 and (P)80] fractions and soluble [S(80)] fraction was measured at 30° C. by estimating the production of methanol and propylene oxide, respectively. The reaction mixtures contained in […]: 150 mM potassium phosphate buffer, pH 7.0 containing 5 mM MgCl2 b, 0.6 ml; 10μ moles NADH, and cellular fraction.
(§2) Reaction mixtures were contained in 10 ml vials at 4° C. Vials were sealed with rubber caps. The gaseous phase in the vials was removed using vacuum and then was replaced with a gas mixture of methane or propylene and oxygen at a 1:1, v/v ratio. Oxidation of other gaseous n-alkanes and n-alkanes was examined as described above. For liquid substrates, 10 μl of substrate was used directly. Vials were then incubated at 30° C. on a rotary shaker at 200 RPM.
It has been reported that the oxidation of methane by cell suspensions of methane-utilizing bacteria was inhibited by various metal-binding or metal-chelating agents (Patel et al., J. Bacteriol. 126: 1017-1019 (1976)). […] (CRL-15, NRRL B-11,202) was examined.

[2] = system: purified secondary alcohol dehydrogenase (SADH) from Pseudomonas sp. ATCC 21439; assay: Effect of metal-chelating agents and thio reagents on purified SADH; settings: final concentration of 1 mM; measured spectrofluorometrically
Method: Secondary alcohol dehydrogenase (SADH) from an obligate methanol utilizer, Pseudomonas sp. ATCC 21439 was purified as follows. […] 0.05 M sodium phosphate buffer, pH 7.0 with 0.5 mM dithiothretol (buffer A) and were disrupted sonically (5×1 min.). The crude extract was separated by centrifugation. The crude extract was heat-treated at 50° C. in a water bath for 10 minutes. The resulting precipitate was removed by centrifugation. To the supernatant solution, 25 ml of protamine sulfate solution (2% solution in 0.1 M Tris base) was added dropwise with continuous stirring. After standing for 30 minutes, the extract was centrifuged. The supernatant solution was fractionated with solid ammonium sulfate. […] This DEAE-cellulose eluate was concentrated by ammonium sulfate fractionation. Material precipitating between 30 and 50% ammonium sulfate saturation was collected by centrifugation and dialyzed overnight against A. This fraction was further washed and filtered through an Amicon unit with XM 50 membrane. The concentrated fraction (6 ml) inside the Amicon unit was applied to an Affi-Gel Blue column (0.8 cm×18 cm) which had been equilibrated with buffer A for affinity chromatography. The column was washed overnight with buffer A (0.18 ml./min.) and then was eluted with buffer A containing 5 mM NAD. Each 1 ml. fraction was collected.
The purified secondary alcohol dehydrogenase enzyme (SADH) may be used directly for converting C3 -C6 secondary alcohols to the corresponding methyl ketones by the procedures described above; however, a source of NAD^+ must be added to the reaction medium. One can determine the NAD-linked secondary alcohol dehydrogenase activity with a fluorescence spectrophotometer (Perkin Elmer, Model MPF 44A) by following the formation of reduced NAD (Ex 340 nm, Em 460 nm). The assay system (3 ml.) will typically contain: sodium phosphate buffer pH 7.0, 150 μmol; NAD 1.0 μmol; a given amount of enzyme preparation; and 20 μmol secondary alcohol. The reaction is started by the addition of secondary alcohol. One unit of SADH enzyme activity represents the reduction of one nmole NAD per minute.
The effect of metal-chelating agents and chioreagents on the activity of the purified SADH enzyme were studied. […] The possibility of ethanol or n-propanol as an inhibitor was studied.

[3] = system: purified secondary alcohol dehydrogenase from Pichia sp. NRRL Y-11,328; assay: Inhibitors of purified yeast SADH; settings: primary alcohols tested at 10^-3 M
Method: Large scale cultures of Pichia sp. NRRL Y-11,328 were grown with aeration at 30° C. in a 14-liter New Brunswick f fermentor in a mineral salt medium containing methanol (0.4%, v/v) as the sole carbon source. The cells (200 g., wet weight) were suspended in […] sodium phosphate buffer, pH 7.0, containing 1 mM dithiothreitol (buffer A), and crude extracts were prepared as described previously. To the crude extracts, 18 ml. of protamine sulfate solution [2% solution in 0.1 M tris (hydroxymethyl) aminomethane (tris) base] was added dropwise with continuous stirring. After standing for 30 min., the extracts were centrifuged at 20,000×g. for 60 min. The supernatant solution was fractionated with solid ammonium sulfate. Extracts were brought to 50% of saturation with respect to ammonium sulfate by addition of 313 g. of the salt per liter of extract. Precipitated proteins was removed by centrifugation, and 137 g. of ammonium sulfate was added per liter of the supernatant liquid to bring it to 70% of saturation. Material precipitating between 50 and 70% of saturation was collected by centrifugation and dissolved in buffer A. This preparation was dialyzed overnight against buffer A, and the dialyzed material was applied to a DEAE-cellulose column (5×40 cm) that had been equilibrated with buffer A. The sample was washed with 200 ml. of buffer A and eluted with 2 liters of buffer A that contained NaCl in a linear gradient running from a concentration of 0 to 0.5 M. Fractions of 15 ml. were collected. Fractions containing secondary alcohol dehydrogenase activity were pooled and were termed DEAE-cellulose eluate. The DEAE-cellulose eluate was concentrated by ammonium sulfate fractionation.
Secondary alcohol dehydrogenase activity was measured spectrophotometrically at 340 nm with a NAD^+ as an electron acceptor. The reaction mixture, in a total 3.0 ml., contained 50 mM phosphate buffer, pH 8,0, 5 μ moles NAD^+, crude extracts, and substrate. The reactions were started by addition of 100 µl of 0.1 M substrate and the rate of NAD^+ reduction was measured. Protein concentration was determined by the method of Lowry et al.
Various primary alcohols not oxidized by secondary alcohol dehydrogenase were tested as potential inhibitors of enzyme activity.

[4] = system: cell-free particulate fractions derived from the methylotrophic microorganisms; assay: Inhibition of conversion of C3 -C6 n-alkanes to sec. alcohols; settings: oxygen and NADH present
Text: The conditions for preparing the cell suspensions or the cell-free particulate fractions from methane-grown methylotroph microorganisms is the same as described above.

[5] = system: P(40) particulate fraction of Methylosinus sp. (CRL-15, NRRL B-11,202); assay: Effect of metals on propylene epoxidation and methane hydroxylation; settings: metal 10^-3 M, P(40) fraction
Method: as §1
as §2, with “directly.” for “directly. Vials were then incubated at 30° C. on a rotary shaker at 200 RPM.”
Since the methane mono-oxygenase from methane-utlizing bacteria is a copper or iron-containing protein (Tonge et al., J. Biochem., 161: 333-344 (1977)), we have examined the effect of copper and iron salts on the oxidation of methane and propylene by the P(40) particulate fraction of Methylosinus sp. (CRL-15, NRRL B-11,202). The rate of hydroxylation of methane to methanol and epoxidation of propylene to propylene oxide was increased twofold in the presence of added copper salts (Table XII).

[6] = system: purified secondary alcohol dehydrogenase from Pichia sp. NRRL Y-11,328; assay: Substrate specificity, electron acceptor and stoichiometry of purified yeast SADH
[7] = system: cell-free soluble extracts of C1 -utilizing microbes (secondary alcohol dehydrogenase); assay: Cofactor requirement of cell-free SADH systems
Method: Catalytic activity was also assayed by fluorescence spectrophotometry.

SMILES: c1cnc2c(c1)ccc1cccnc12 [1,10-Phenanthroline]
- % Inhibition, Methane-Hydroxylating Activity [1]: 90%
- % Inhibition, Propylene-Epoxidizing Activity [1]: 93%
- % inhibition of SADH activity [2]: 95%
- inhibition of secondary alcohol dehydrogenase activity [3]: strongly inhibited
- inhibition of conversion of n-alkanes to sec. alcohols [4]: inhibited

SMILES: Oc1cccc2cccnc12 [8-Hydroxyquinoline]
- % Inhibition, Methane-Hydroxylating Activity [1]: 80%
- % Inhibition, Propylene-Epoxidizing Activity [1]: 75%
- inhibition of conversion of n-alkanes to sec. alcohols [4]: inhibited

SMILES: O=S(=O)([O-])[O-].[Cu+2] [Cupric Sulfate]
- Methane-Oxidizing Activity ([5]; control 4.0): 7.1 μmoles/hr/mg protein
- Propylene-Oxidizing Activity ([5]; control […]): 9.0 μmoles/hr/mg protein
- inhibition of secondary alcohol dehydrogenase activity [3]: inhibited

SMILES: Cc1cc2nc3c(=O)[nH]c(=O)nc-3n(C[C@H](O)[C@H](O)[C@H](O)COP(=O)(O)OP(=O)(O)OC[C@H]3O[C@@H](n4cnc5c(N)ncnc54)[C@H](O)[C@@H]3O)c2cc1C [FAD, flavin adenine dinucleotide]
- electron acceptor / carrier [6]: could not act as electron carrier
- effectiveness as cofactor for oxidation of secondary alcohols [7]: not effective

SMILES: c1c[nH]cn1 [Imidazole]
- inhibition of secondary alcohol dehydrogenase activity [3]: strongly inhibited

SMILES: NC(=O)C1=CN([C@@H]2O[C@H](COP(=O)(O)OP(=O)(O)OC[C@H]3O[C@@H](n4cnc5c(N)ncnc54)[C@H](OP(=O)(O)O)[C@@H]3O)[C@@H](O)[C@H]2O)C=CC1 [NAD(P)H]
- effectiveness as cofactor for oxidation of secondary alcohols [7]: not effective

SMILES: NC(=O)c1ccc[n+]([C@@H]2O[C@H](COP(=O)([O-])OP(=O)(O)OC[C@H]3O[C@@H](n4cnc5c(N)ncnc54)[C@H](O)[C@@H]3O)[C@@H](O)[C@H]2O)c1 [NAD, Nicotinamide adenine dinucleotide]
- electron acceptor / carrier [6]: required
- effectiveness as cofactor for oxidation of secondary alcohols [7]: requirement; also recorded: required

SMILES: NC(=O)c1ccc[n+]([C@@H]2O[C@H](COP(=O)([O-])OP(=O)(O)OC[C@H]3O[C@@H](n4cnc5c(N)ncnc54)[C@H](OP(=O)(O)O)[C@@H]3O)[C@@H](O)[C@H]2O)c1 [NADP]
- electron acceptor / carrier [6]: could not act as electron carrier
- effectiveness as cofactor for oxidation of secondary alcohols [7]: not effective

SMILES: NNC(N)=S [Thiosemicarbazide]
- % Inhibition, Methane-Hydroxylating Activity [1]: 100%
- % Inhibition, Propylene-Epoxidizing Activity [1]: 97%
- inhibition of conversion of n-alkanes to sec. alcohols [4]: inhibited

SMILES: NC(N)=S [Thiourea]
- % Inhibition, Methane-Hydroxylating Activity [1]: 98%
- % Inhibition, Propylene-Epoxidizing Activity [1]: 98%
- % inhibition of SADH activity [2]: 0%
- inhibition of conversion of n-alkanes to sec. alcohols [4]: inhibited

SMILES: O=C1C(Cl)=CC(=Nc2ccc(O)cc2)C=C1Cl [dichlorophenol indophenol]
- electron acceptor / carrier [6]: could not act as electron carrier
- effectiveness as cofactor for oxidation of secondary alcohols [7]: not effective

SMILES: N[C@@H](CCC(=O)N[C@@H](CS)C(=O)NCC(=O)O)C(=O)O [glutathione]
- inhibition of secondary alcohol dehydrogenase activity [3]: strongly inhibited
- effectiveness as cofactor for oxidation of secondary alcohols [7]: not effective

SMILES: N#C[S][Hg][S]C#N [mercuric thiocyanate]
- inhibition of secondary alcohol dehydrogenase activity [3]: inhibited

SMILES: O=C(O)c1cc[c]([Hg+])cc1.[OH-] [p-hydroxymercuribenzoate]
- % inhibition of SADH activity [2]: 100%
- inhibition of secondary alcohol dehydrogenase activity [3]: strongly inhibited

SMILES: C[n+]1c2ccccc2nc2ccccc21 [phenazine methosulfate]
- electron acceptor / carrier [6]: could not act as electron carrier
- effectiveness as cofactor for oxidation of secondary alcohols [7]: not effective

SMILES: O=[N+]([O-])[O-].[Ag+] [silver nitrate]
- inhibition of secondary alcohol dehydrogenase activity [3]: inhibited

SMILES: c1ccc(-c2ccccn2)nc1 [α,α-Bipyridyl]
- % Inhibition, Methane-Hydroxylating Activity [1]: 99%
- % Inhibition, Propylene-Epoxidizing Activity [1]: 98%
- % inhibition of SADH activity [2]: 70%
- inhibition of conversion of n-alkanes to sec. alcohols [4]: inhibited
